Consider one compound from patent publication US11219614B2, “Combination cancer therapy with pentaaza macrocyclic ring complex and ascorbate compound” (Galera Labs, LLC, priority 2016, dated 2022).

SMILES strings stand for the structures.

In series [1] the test system is Non-small cell lung cancer cells (H1299). The series can be described thus: clonogenic cell survival assay, H1299. The class given is cell-based. How it is done:
(§1) FIG. 1 is a plot showing the surviving fraction of H1299 cells for increasing amounts of ascorbate, as determined by a clonogenic cell survival assay used to determine the effects of the compound alone and in combination with a pentaaza macrocyclic ring complex (GC4419). Non-small cell lung cancer cells (H1299) were exponentially grown in culture for 48 hours. The cells were then treated with 5-20 μM GC4419 for 24 hours and ascorbate (Asc) for one hour, followed immediately by clonogenic assay. The cells were trypsinized, counted, replated at varying lower densities and incubated. Plates were stained and counted for clonogenic survival assays.
as §1, with “FIG. 10” for “FIG. 1”, “with either the” for “with a”, “complex (GC4419) or the pentaaza macrocyclic ring complex (GC4401).” for “complex (GC4419).”, “with ascorbate (Asc) at the concentrations shown for one hour and either 10” for “with 5-20”, “GC4419 or 10 μM GC4401” for “GC4419”, “24 hours. After 24 hours, the” for “24 hours and ascorbate (Asc) for one hour, followed immediately by clonogenic assay. The”
FIG. 11 is a graph showing the surviving fraction of H1299 cells treated with ascorbate and combinations including ascorbate and/or auranofin. […] The cells were then trypsinized, counted, replated at varying lower densities and incubated. Plates were stained and counted for clonogenic survival assays.
The effect of ascorbate was tested in a clonogenic cell survival assay to determine the effects of the compound alone and in combination with a pentaaza macrocyclic ring complex (GC4419). […] The cells were trypsinized, counted, replated at varying lower densities and incubated. Plates were stained and counted for clonogenic survival assays.
The effect of ascorbate was tested in a clonogenic cell survival assay to determine the effects of the compound alone and in combination with the pentaaza macrocyclic ring complex (GC4419) and the pentaaza macrocyclic ring complex (GC4401). […] The cells were trypsinized, counted, replated at varying lower densities and incubated. Plates were stained and counted for clonogenic survival assays.
The effects of ascorbate in combination with a pentaaza macrocyclic ring complex (GC4419) was tested in a clonogenic cell survival assay to determine the effects of the combination alone and when paired with the thioredoxin reductase inhibitor auranofin. […] The cells were then trypsinized, counted, replated at varying lower densities and incubated. […]

For series [2], the system named is Normal human fibroblasts (NHFs). The series is described as follows: surviving fraction of normal human fibroblasts. The conditions noted are these: 5 μM GC4419 24 h followed by 10 pmol/cell ascorbate 1 h; FIG. 9. The class given is cell-based. How it is done:
FIG. 9 is a graph showing the normalized surviving fraction of normal human fibroblasts (NHFs) treated with GC4419, ascorbate, and a combination of GC4419 and ascorbate. Normal human fibroblasts (NHFs) were plated and grown in culture (low FBS media) for 48 hours. The NHFs were then treated with 5 μM GC4419 for 24 hours followed by treatment with 10 pmol/cell ascorbate for 1 hour.
Normal human fibroblasts (NHFs) were plated and grown in culture (low FBS media) for 48 hours. The NHFs were then treated with 5 μM GC4419 for 24 hours followed by treatment with 10 pmol/cell ascorbate for 1 hour.

Series [3] concerns VEGFr inhibitor-induced pulmonary disease. The conditions noted are these: rat model; cited from earlier work.
Series [4] concerns oral mucositis in head-and-neck cancer patients. The conditions noted are these: head-and-neck cancer patients undergoing chemoradiation therapy; cited from earlier work.
In the next series the test system is Lung cancer cells (H292). The series can be described thus: clonogenic cell survival assay, H292. The conditions noted are these: ascorbate 1 h in combination with 5, 10 or 20 μM GC4419 24 h; compared to monotherapies; FIG. 2. The class given is cell-based. How it is done:
FIG. 2 is a plot showing the surviving fraction of H292 cells for increasing amounts of ascorbate, as determined by a clonogenic cell survival assay to used determine the effects of the compound alone and in combination with a pentaaza macrocyclic ring complex (GC4419). Lung cancer cells (H292) were exponentially grown in culture for 48 hours. The cells were then treated with 5-20 μM GC4419 for 24 hours, and ascorbate (Asc) for one hour, followed immediately by clonogenic assay. The cells were trypsinized, counted, replated at varying lower densities and incubated. Plates were stained and counted for clonogenic survival assays.
The effect of ascorbate was tested in a clonogenic cell survival assay to determine the effects of the compound alone and in combination with a pentaaza macrocyclic ring complex (GC4419). Lung cancer cells (H292) were exponentially grown in culture for 48 hours. The cells were then treated with 5-20 μM GC4419 for 24 hours, and ascorbate (Asc) for one hour followed by immediate clonogenic assay. The cells were trypsinized, counted, replated at varying lower densities and incubated. Plates were stained and counted for clonogenic survival assays.

For the compound `[Cl][Mn][Cl].c1cc2nc(c1)CN[C@H]1CCCC[C@@H]1NCCN[C@H]1CCCC[C@@H]1NC2` [GC4419], the “cell killing (clonogenic survival)” value in series [1] (1 μM auranofin 24 h + 10 μM GC4419 24 h + 10 pmol/cell ascorbate 1 h, compared to control, monotherapies and pairwise combinations, FIG. 11) is “also resulted in significant enhancements in cell killing”; in series [1] (10 μM GC4419 24 h + 10 pmol/cell ascorbate 1 h, compared to control and monotherapies, FIG. 11) it was “significant enhancements in cell killing”; in series [1] (ascorbate 1 h in combination with 5 μM or 20 μM GC4419 24 h, compared to ascorbate or GC4419 monotherapies, FIG. 1) it was “significant enhancements in cell killing”; in series [1] (ascorbate 1 h in combination with 10 μM complex 24 h, compared to control, FIG. 10) it was “significant enhancements in cell killing”; in the series on Lung cancer cells (H292) it was “significant enhancements in cell killing”. In series [2], the “cytotoxicity to normal cells” value was “does not increase cytotoxicity of ascorbate”. In series [3], the pulmonary disease result is on record as “attenuate VEGFr inhibitor-induced pulmonary disease”. For the same compound, the oral mucositis entry in series [4] is given as “reduce oral mucositis”.
